In paper PMC9979715 (Blood Advances, 2022):

Biological target: T1, MAP2K7 (Homo sapiens, UniProt O14733)
T1 sequence (O14733 2-419): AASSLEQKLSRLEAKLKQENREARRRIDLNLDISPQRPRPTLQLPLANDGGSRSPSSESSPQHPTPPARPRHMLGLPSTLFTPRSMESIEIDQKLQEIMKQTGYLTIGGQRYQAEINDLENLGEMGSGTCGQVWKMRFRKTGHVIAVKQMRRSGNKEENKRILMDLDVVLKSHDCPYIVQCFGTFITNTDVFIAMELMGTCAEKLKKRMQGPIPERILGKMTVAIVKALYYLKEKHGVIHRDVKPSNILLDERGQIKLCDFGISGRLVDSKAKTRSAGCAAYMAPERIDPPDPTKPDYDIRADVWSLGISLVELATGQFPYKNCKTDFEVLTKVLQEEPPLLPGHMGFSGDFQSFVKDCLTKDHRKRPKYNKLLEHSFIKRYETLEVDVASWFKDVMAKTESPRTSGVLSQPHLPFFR
Experiment: ADP-Glo kinase assay, purified human MAP2K7 with dead-JNK2 substrate and ATP
Format: biochemical

- IC50: 160 nM
Structure (SMILES): CC(=O)c1cnc2ccc(-c3cc(Cl)c(O)c(Cl)c3)nc2c1N[C@H]1CC[C@H](CN(C)C)CC1 [OTSSP167]
